Series [1] concerns liver transport system or systems inhibitable by BSP. Conditions: cited from earlier work.
The conditions of series [2]: rat, in vivo, 6 h; cited from earlier work.
The conditions of series [3]: T1-weighted spin-echo, 0.5 Tesla; cited from earlier work.
The conditions of series [4]: in vivo; cited from earlier work.
Series [5] can be described thus: In vivo MRI, % enhancement by region of interest (Example 19). Further details: species or system Sprague-Dawley rats. As for the experimental part: Magnetic resonance imaging was carried out using a CSI 2-Tesla imager (GE, Inc., Fremont, Calif.) equipped with a 5-cm diameter distributed-capacitance imaging coil. A T1-weighted (TR 300/TE 6; NEX 4) spin-echo sequence was used.
Sprague-Dawley rats (250-350 g; n=4 for each contrast agent) were anesthetized with ketamine (90 mg/kg) and diazepam (10 mg/kg) and fitted with an intravenous catheter in a lateral tail vein. Anesthesia was maintained during imaging using pentobarbital delivered via an intraperitoneal catheter.
The anesthetized animal was placed in the imaging coil and secured with tape. The coil containing the animal then was placed in the magnet bore, and the magnetic field was shimmed. Pre-contrast images were obtained. The contrast agent (100 μmol/kg) then was injected via the tail-vein catheter, and additional images were obtained at various intervals for up to 90 min post injection.
Contrast agent enhancement was determined by measuring the mean signal intensity (SI) in operator-designated regions of interest (ROI). These were normalized to the pre-injection value for each ROI according to the following formula:
% Enhancement=100×(SIpost -SIpre)/SIpre

The nature of series [6]: Hydrolysis of the esters in pH 7.4 HEPES buffer. Format: physicochemical. The note with it: pH 7.4, 25° C., each step. As to the method:
(§1) Aliquots were withdrawn at various time intervals and examined by HPLC [PRP-1 column; water-acetonitrile gradient; 25 mM ammonium formate, pH 7 mobile phase].

Series [7] is classed as in vitro ADME, rat. As to the method:
as §1

The nature of series [8]: T1-weighted spin-echo MRI of a rat, region-of-interest % enhancement (Examples 8 and 9). In kind it is in vivo, Sprague-Dawley rat. As to the method: FIG. 5 is a photograph of T1-weighted magnetic resonance images of a rat obtained before, and at 0, 5, 10, 15, 25, 45 and 60 minutes after the injection of Gd-DTPA-bis(phenylalanine) at a dose of 0.1 mmol/kg body weight. The images are 60 mm×60 mm×3 mm thick slices in the coronal plane. The region covered extends from just above the heart to somewhat below the liver. Imaging parameters are indicated along the left of the Figure and include the repetition time ([…]), echo time (6000 microseconds), number of signal averages (4), and the image matrix size (128×256).
FIGS. 6A and 6B are photographs of T1-weighted magnetic resonance images obtained as described in FIG. 5A and 5B, except that Gd-DTPA-bis(phenylalanine ethyl ester) was used as the contrast agent.
A 300-g male Sprague-Dawley rat was anesthetized with an intraperitoneal injection of a mixture of ketamine and diazepam, and a catheter was inserted into a lateral tail vein. The rat was then placed in a 5-cm inside diameter (i.d.) imaging coil in the bore of a 2-Tesla imager-spectrometer system (GE CSI; General Electric Co., Fremont, Calif.). A T1-weighted spin-echo image of the animal's abdomen in the coronal plane was then obtained (TR 300 ms; Te 6 ms; 128-256 image matrix; NEX=4; 3 mm slice thickness). Next, 0.6 g of the Gd-DTPA-bis(phenylalanine) solution described in Example 7 was injected via the catheter. A series of post-injection images were obtained. […] See also, FIGS. 5A and 5B.
The imaging was carried out analogously to Example 8. […] See also, FIGS. 6A and 6B.

A short description of series [9]: Comparative MRI of two preparations of Gd-DTPA-bis(phenylalanine ethyl ester) (Example 11). Format: in vivo, mice. As for the experimental part: FIG. 8 is a photograph of T1-weighted magnetic resonance images obtained as in FIG. 6, except that a different preparation of Gd-DTPA-bis(phenylalanine ethyl ester) (sometimes abbreviated Gd-DTPA-(PheOEt)2) was used.
Freshly prepared material, whose pH was carefully adjusted to neutrality, and which was stored in the cold, was determined to be about 90% Gd-DTPA-(PheOEt)2, the remainder being mostly Gd-DTPA-(PheOEt) (Phe).

The mark [10] stands for this setting: more pure preparation (about 90% bis ester).
Where [11] appears, read: partially hydrolyzed material of FIG. 6 (ca. 45% bis ester).

Structures are written as SMILES.

Turning to `O=C([O-])C(NCCNC(C(=O)[O-])c1ccccc1[O-])c1ccccc1[O-].[Fe+3]` (stereo not shown) [Fe-EHPG], in series [1], the “liver transport (in words)” value is “transported in the liver by a system or systems inhibitable by BSP”.
For the molecule `CC(=O)N([O-])CCCCCNC(=O)CCC(=O)N([O-])CCCCCNC(=O)CCC(=O)N([O-])CCCCCNC(=O)CC(CC(=O)[O-])c1ccccc1.[Fe+3].[H+]` (stereo not shown) [Fe-PGDF], the “liver transport (in words)” value in [1] is listed as “transported in the liver by a system or systems inhibitable by BSP”.
Regarding `O=C([O-])CN(CCN(CC(=O)[O-])CC(=O)[O-])CCN(CC(=O)[O-])C(COCc1ccccc1)C(=O)[O-].[Gd+3]` (stereo not shown) [Gd-BOPTA], the biliary excretion in series [2] was 38.6 % of injected dose. Moreover, the “signal enhancement in liver” value in series [3] is listed as 48%.
With `CNC[C@H](O)[C@@H](O)[C@H](O)[C@H](O)CO.CNC[C@H](O)[C@@H](O)[C@H](O)[C@H](O)CO.O=C([O-])CN(CCN(CC(=O)[O-])CC(=O)O)CCN(CC(=O)[O-])CC(=O)O.[Gd+3]` [Gd-DTPA, gadolinium (III) complex of diethylenetriaminepentaacetic acid], the “distribution (in words)” value in [4] was “distributes in blood plasma and extracellular fluid”. In addition, in series [3], the “signal enhancement in liver” value is recorded as 16%.
On to `COc1ccc(CCNC(=O)CN(CCN(CCN(CC(=O)[O-])CC(=O)NCCc2ccc(OC)c(OC)c2)CC(=O)[O-])CC(=O)[O-])cc1OC.[Gd+3]` [Gd-DTPA-(3,4-DMPE)2], for which the lung enhancement in [5] (100 μmol/kg i.v., n=4) is 141%±4%. Moreover, the “enhancement of organs (in words)” value in [5] (MRI of rats) was “useful enhancement of heart, lungs, kidney and liver”.
Take `CCOC(=O)[C@@H](Cc1ccccc1)NC(=O)CN(CCN(CCN(CC(=O)[O-])CC(=O)N[C@H](Cc1ccccc1)C(=O)OCC)CC(=O)[O-])CC(=O)[O-].[Gd+3]` [Gd-DTPA-(D-PheOEt)2, Gd(III)-DTPA-bis(D-phenylalanine ethyl ester)]: the “half-time of hydrolysis in aqueous buffer” value in series [6] was “of the order of days”. Further, in series [7], the “ester hydrolysis in rat plasma (in words)” value is “resistant to even the first step of ester hydrolysis” and the “t1/2 of ester hydrolysis in rat plasma” value is “None Detected”.
`CCOC(=O)[C@H](Cc1ccccc1)NC(=O)CN(CCN(CCN(CC(=O)[O-])CC(=O)N[C@@H](Cc1ccccc1)C(=O)OCC)CC(=O)[O-])CC(=O)[O-].[Gd+3]` [Gd-DTPA-bis(phenylalanine ethyl ester), Gd(III)-DTPA-bis(L-phenylalanine ethyl ester)]: the “half-time of hydrolysis in aqueous buffer” value in [6] is reported as “of the order of days”. For the same molecule, the “ester hydrolysis in rat plasma (in words)” value in series [7] is given as “very rapidly hydrolyzed in rat plasma”. Also, the “image enhancement (in words)” value in series [8] (2 Tesla, about 0.1 mmol/kg) was “different apparent enhancement in the liver and heart”. Also, the “image region-of-interest % enhancement” value came to 86% in [8] (heart, 0-3 min post-injection); 46% in [8] (heart, 5-8 min post-injection); 66% in series [8] (heart, 15-18 min post-injection); 48% in series [8] (heart, 25-38 min post-injection); 49% in series [8] (heart, 45-48 min post-injection); 25% in series [8] (heart, 60-63 min post-injection). Further, the “image region-of-interest % enhancement” value amounted to 70% in [8] (liver, 0-3 min post-injection); 109% in series [8] (liver, 5-8 min post-injection); 113% in series [8] (liver, 15-18 min post-injection); 99% in [8] (liver, 25-38 min post-injection); 71% in [8] (liver, 45-48 min post-injection); 44% in [8] (liver, 60-63 min post-injection). Also, the “image region-of-interest % enhancement” value in series [8] (muscle (Table 3: skeletal muscle), 0-3 min post-injection) is on record as 50%; in series [8] (muscle (Table 3: skeletal muscle), 5-8 min post-injection), 30%; in [8] (muscle (Table 3: skeletal muscle), 15-18 min post-injection), 31%; in series [8] (muscle (Table 3: skeletal muscle), 25-38 min post-injection) it was 26%; in series [8] (muscle (Table 3: skeletal muscle), 45-48 min post-injection), 16%; in [8] (muscle (Table 3: skeletal muscle), 60-63 min post-injection), 16%. Besides, the figures for the heart enhancement in series [9] (setting [10]) and in [9] (setting [11]) were 74% and 84%, respectively. The liver enhancement in series [9] (setting [10]) amounted to 163%; in series [9] (setting [11]), 53%. The “factor by which degree of liver enhancement was greater” value in series [9] (more pure preparation vs FIG. 6 material) was “about three”.

(Values after patent publication US5562894A, “Amino-acyl-type and catecholamine-type contrast agents for MRI” (Regents of the University of California, priority 1993, dated 1996).)
